From paper PMC6044923 (ACS Omega, 2017)

Target: amyloid-β (Aβ(1–42)) (Homo sapiens, UniProt P05067)
Experiment: SPR aggregation assay
Assay type: biochemical

Chain of amyloid-β (Aβ(1–42)) (P05067 672-713): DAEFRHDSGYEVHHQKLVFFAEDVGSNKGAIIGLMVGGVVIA

- IC50: 0.43 µM
Structure (SMILES): C[n+]1ccc(-c2c3nc(c(-c4cc[n+](C)cc4)c4ccc([nH]4)c(-c4cc[n+](C)cc4)c4nc(c(-c5cc[n+](C)cc5)c5ccc2[nH]5)C=C4)C=C3)cc1 [TMPyP, 5,10,15,20-tetrakis(N-methyl-4-pyridyl)porphyrin]
